This is an account of results in article PMC4710522, “A Novel Triazolopyridine-Based Spleen Tyrosine Kinase Inhibitor That Arrests Joint Inflammation” (PLoS ONE, 2016).

In experiment [1] the target is T1, PKC-eta_h (Homo sapiens, UniProt P24723).
T1 construct: purchased Life Technologies (Invitrogen) SelectScreen, Z'-LYTE / Adapta
The experiment can be described thus: SelectScreen kinase assay. Particulars: KM ATP, read-out: % control. It is filed as biochemical.

Experiment [2] deals with Tel-Syk expressing BaF3 cells. In words: Tel-Syk BaF3 viability assay (growth factor-independent growth). It is filed as cell-based, murine. Particulars: Mus musculus; Tel-Syk BaF3, absence of IL-3. The procedure: HEK293 T-REx™ (Life Technologies, Grand Island, NY) stably transfected with human TEL-Syk (cloned as described prior section DNA constructs) were plated on black poly-D-lysine coated 96-well plates (BD Biosciences, San Diego, CA) in culture media containing tetracycline-free fetal bovine serum (Clontech, MountainView, CA) for 16 hours in a tissue culture incubator. Tel-Syk expression was induced for 6 hours in fresh growth media containing 1 μg/ml tetracycline (Sigma Chemicals, St. Louis, MO). Plates were preincubated with CC-509 for 90 minutes, fixed immediately with 4% formaldehyde in 1X PBS for 20 min at room temperature, and washed/permeabilized 5-times with PBS containing 0.1% Triton X-100. Plates were blocked with Odyssey Blocking Buffer for 90 minutes at room temperature and incubated overnight at 4°C on a rotating platform with rabbit phospho-Syk (1:1000) and mouse V5 (1:2500) primary antibodies diluted in Odyssey Blocking Buffer. […] Viability of BaF/3 cells expressing Tel-Syk grown in the absence of murine IL-3 was measured using Cell-Titer Glo reagent (Promega, Madison, WI), as described by supplier.

The target of experiment [3] is T2, RetA (Homo sapiens, UniProt P07949).
T2 construct: purchased Life Technologies PV3819
The experiment can be described thus: Ret A HTRF assay. It is filed as biochemical. The following applies: in-house, mean ± SD. The procedure:
CC-509 was prepared at a concentration of 1.5 mM in DMSO followed by 3-fold dilutions in Greiner […] polypropylene plates. A 1:4 dilution of compounds by 8 μL/well transfer from the polypropylene plates to 24 μL/well Assay Buffer (50 mM HEPES pH 7.6, 1 mM DTT, 10 mM MgCl2, 0.01% Triton X-100, 0.01% BSA and 0.1 mM EDTA) in Costar 3710 384 well black plates was then performed. Kinases (13 μL/well of 31 ng/ml RetA (Life Technologies, Grand Island, NY PV3819) in Assay Buffer) or Assay Buffer only (background controls) were added to Costar 3710 384-well black plates for the HTRF assays and compound (2 μL/ well) was added from the 1:4 dilution plate. […] Time resolved fluorescence was read in assay plates on a PerkinElmer EnVision. […] The IC50 value was determined as described in the data fitting section below.
For the TEL-Syk assay, the intensity values for the 700 and 800 channel were exported as text files in ActivityBase (IDBS, Guildford, UK) to derive the ratios that reflect kinase activity. […] For the JAK2 HEL and Ramos NFAT β-lactamase assays, the fluorescence values obtained at 460 nm and 530 nm were exported into ActivityBase to calculate response ratios. […] Evans blue dye extravasation was expressed as mean ± SEM and % inhibition for the test article groups was normalized to the cromolyn positive control. […] Data is expressed as mean ± SEM of each group with n = 6–12. […]
(In TR-FRET formats the signal depends on donor and acceptor labels being close together.)

Experiment [4] deals with T3, Adenosine A2a (Homo sapiens, UniProt P29274).
T3 construct: CEREP (contract assay)
In words: receptor, ion channel, transporter binding panel (CEREP). The procedure: (§1) Syk kinase mode of inhibition studies, including parameters described in Fig 1, were conducted on the LC3000 platform by Caliper Life Sciences (Hopkinton, MA) according to standard protocols developed by the supplier. […] Non-kinase enzyme assays and GPCR, ion channel, and transporter binding assays were run by CEREP (France). Non-GLP manual patch clamp hERG assays were run by ChanTest (Cleveland, Ohio). Vivid® Assay kits (Life Technologies) were used to measure the cytochrome P450 inhibition of the compound against CYP3A, CYP2C9, CYP2C19, CYP2D6, and CYP1A2, as described.

Experiment [5] deals with T4, Adenosine A1 (Homo sapiens, UniProt P30542).
T4 construct: CEREP (contract assay)
The description is as above. The procedure: as §1

Experiment [6] addresses T5, Adenosine A3 (Homo sapiens, UniProt P0DMS8).
T5 construct: CEREP (contract assay)
The description is as above. The procedure:
as §1

T5 sequence (P0DMS8 whole entry): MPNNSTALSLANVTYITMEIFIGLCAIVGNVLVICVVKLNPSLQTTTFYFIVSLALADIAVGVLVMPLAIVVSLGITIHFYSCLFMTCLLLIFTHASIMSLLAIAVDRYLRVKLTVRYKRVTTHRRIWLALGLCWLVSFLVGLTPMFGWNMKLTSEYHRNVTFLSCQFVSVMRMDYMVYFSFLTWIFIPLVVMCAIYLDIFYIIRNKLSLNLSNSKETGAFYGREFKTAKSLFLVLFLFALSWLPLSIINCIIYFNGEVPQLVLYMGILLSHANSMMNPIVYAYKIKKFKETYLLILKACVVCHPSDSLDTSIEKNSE
T1 sequence (P24723 whole entry): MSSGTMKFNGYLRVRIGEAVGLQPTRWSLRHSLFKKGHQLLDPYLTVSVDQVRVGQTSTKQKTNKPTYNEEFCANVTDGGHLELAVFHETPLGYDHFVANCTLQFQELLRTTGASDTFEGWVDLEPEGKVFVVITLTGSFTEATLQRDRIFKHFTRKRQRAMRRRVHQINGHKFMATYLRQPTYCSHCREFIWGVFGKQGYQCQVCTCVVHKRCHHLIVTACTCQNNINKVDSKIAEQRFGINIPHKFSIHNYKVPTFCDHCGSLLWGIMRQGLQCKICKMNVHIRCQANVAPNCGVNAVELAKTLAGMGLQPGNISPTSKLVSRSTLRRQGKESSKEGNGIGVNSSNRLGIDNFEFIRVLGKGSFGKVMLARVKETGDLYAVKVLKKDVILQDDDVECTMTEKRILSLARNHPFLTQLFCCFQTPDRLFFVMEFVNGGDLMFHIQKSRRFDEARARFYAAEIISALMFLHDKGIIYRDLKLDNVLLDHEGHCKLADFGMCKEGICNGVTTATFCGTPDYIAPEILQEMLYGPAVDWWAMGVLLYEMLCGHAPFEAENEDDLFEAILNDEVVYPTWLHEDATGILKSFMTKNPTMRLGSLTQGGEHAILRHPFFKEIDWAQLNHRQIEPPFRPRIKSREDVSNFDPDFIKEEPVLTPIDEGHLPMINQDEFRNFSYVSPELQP
T2 sequence (P07949 29-1114): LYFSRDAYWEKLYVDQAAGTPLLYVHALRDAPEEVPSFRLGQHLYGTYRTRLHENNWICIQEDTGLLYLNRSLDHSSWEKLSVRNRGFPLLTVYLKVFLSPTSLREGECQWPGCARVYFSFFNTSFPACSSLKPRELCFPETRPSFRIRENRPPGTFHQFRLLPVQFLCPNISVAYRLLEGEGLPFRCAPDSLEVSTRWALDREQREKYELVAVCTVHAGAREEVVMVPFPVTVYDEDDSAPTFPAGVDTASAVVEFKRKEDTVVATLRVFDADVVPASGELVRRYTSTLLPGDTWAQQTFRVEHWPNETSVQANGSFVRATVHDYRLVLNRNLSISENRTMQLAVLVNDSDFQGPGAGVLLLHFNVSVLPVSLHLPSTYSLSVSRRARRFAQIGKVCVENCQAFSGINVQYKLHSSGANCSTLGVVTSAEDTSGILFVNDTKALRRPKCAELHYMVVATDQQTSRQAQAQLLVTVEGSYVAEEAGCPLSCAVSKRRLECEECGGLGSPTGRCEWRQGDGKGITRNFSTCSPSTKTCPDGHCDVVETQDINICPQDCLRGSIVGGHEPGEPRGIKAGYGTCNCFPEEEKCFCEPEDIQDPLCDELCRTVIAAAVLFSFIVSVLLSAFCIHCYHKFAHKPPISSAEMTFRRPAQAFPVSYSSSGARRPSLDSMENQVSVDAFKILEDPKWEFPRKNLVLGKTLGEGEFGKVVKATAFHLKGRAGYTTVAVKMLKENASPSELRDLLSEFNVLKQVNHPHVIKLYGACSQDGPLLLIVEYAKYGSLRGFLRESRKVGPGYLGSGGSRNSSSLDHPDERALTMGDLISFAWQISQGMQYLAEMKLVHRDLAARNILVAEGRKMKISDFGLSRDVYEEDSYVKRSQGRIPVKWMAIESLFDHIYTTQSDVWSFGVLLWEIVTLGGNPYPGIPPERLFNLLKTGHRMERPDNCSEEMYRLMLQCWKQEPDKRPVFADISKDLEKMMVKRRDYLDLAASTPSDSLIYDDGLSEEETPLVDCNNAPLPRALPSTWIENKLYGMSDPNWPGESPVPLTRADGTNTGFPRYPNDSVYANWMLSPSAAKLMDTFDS
T4 sequence (P30542 whole entry): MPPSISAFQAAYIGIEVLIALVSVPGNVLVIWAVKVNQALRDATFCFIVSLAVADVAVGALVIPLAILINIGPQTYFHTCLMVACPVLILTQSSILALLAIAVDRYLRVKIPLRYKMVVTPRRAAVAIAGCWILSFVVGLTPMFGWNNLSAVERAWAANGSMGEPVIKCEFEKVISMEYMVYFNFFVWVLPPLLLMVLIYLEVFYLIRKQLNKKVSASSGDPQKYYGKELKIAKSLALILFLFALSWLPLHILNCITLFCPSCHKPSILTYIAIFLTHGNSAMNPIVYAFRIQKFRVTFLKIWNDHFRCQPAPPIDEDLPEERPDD
T3 sequence (P29274 whole entry): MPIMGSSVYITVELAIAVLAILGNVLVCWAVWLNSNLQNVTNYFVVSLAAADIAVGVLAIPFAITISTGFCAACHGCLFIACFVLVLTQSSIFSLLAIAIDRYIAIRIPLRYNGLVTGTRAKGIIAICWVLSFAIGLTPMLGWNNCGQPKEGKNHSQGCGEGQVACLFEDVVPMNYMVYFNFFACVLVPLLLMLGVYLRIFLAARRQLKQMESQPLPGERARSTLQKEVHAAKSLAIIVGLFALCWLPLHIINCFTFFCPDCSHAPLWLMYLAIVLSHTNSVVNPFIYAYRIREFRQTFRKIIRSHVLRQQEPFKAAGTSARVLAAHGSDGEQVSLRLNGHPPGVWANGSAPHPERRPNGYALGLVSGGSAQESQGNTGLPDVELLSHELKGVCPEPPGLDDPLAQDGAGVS

One may read the IC50 as the concentration at which inhibition is half-maximal. For orientation: inhibition means the relative decrease from the control value, in per cent. With `c1cc(CC2CCOCC2)n2nc(Nc3ccc4c(NC5CCOCC5)n[nH]c4c3)nc2c1` [CC-509, [3-(2H-3,4,5,6-tetrahydropyran-4-ylamino)(1H-indazol-6-yl)][5-(2H-3,4,5,6-tetrahydropyran-4-ylmethyl)(2H-1,2,4-triazolo[1,5-a]pyridin-2-yl)]amine], in experiment [1], the remaining activity at 3 µM came to 102%. Moreover, the results for the concentration for half-maximal inhibition (IC50) in experiment [2] and in experiment [3] were 1610 ± 410 nM and 750 ± 190 nM, respectively. Further, the inhibition at 10 µM in experiment [4] was 96%; in experiment [5], 89%; in experiment [6] it was 84%.
